The text below walks through data of ChEMBL document CHEMBL1146447, “Evaluation of the antifungal activity of natural xanthones from Garcinia mangostana and their synthetic derivatives” (1997).

Holding throughout (assay type): functional
Assay [1] relates to Drechslera. Briefly: Antifungal activity against Drechslera oryzae at 10 ppm after 168 hrs at 24 hrs intervals.
Assay [2] has as its system Drechslera. Put plainly: Antifungal activity against Drechslera oryzae at 1 ppm after 168 hrs at 24 hrs intervals.
Assay [3] deals with Fusarium oxysporum f. sp. vasinfectum. Briefly: Antifungal activity against Fusarium oxysporum vasinfectum at 1000 ppm after 144 hrs at 24 hrs intervals.
For assay [4], the system named is Alternaria alternata. Put plainly: Antifungal activity against Alternaria tenuis at 10 ppm after 168 hrs at 24 hrs intervals.
For assay [5], the system named is Fusarium oxysporum f. sp. vasinfectum. Briefly: Antifungal activity against Fusarium oxysporum vasinfectum at 100 ppm after 144 hrs at 24 hrs intervals.
The subject of assay [6] is Drechslera. Put plainly: Antifungal activity against Drechslera oryzae at 100 ppm after 168 hrs at 24 hrs intervals.
Assay [7] concerns Alternaria alternata. Briefly: Antifungal activity against Alternaria tenuis at 1000 ppm after 168 hrs at 24 hrs intervals.
In assay [8] the test system is Fusarium oxysporum f. sp. vasinfectum. Put plainly: Antifungal activity against Fusarium oxysporum vasinfectum at 1 ppm after 144 hrs at 24 hrs intervals.
For assay [9], the system named is Drechslera. Put plainly: Antifungal activity against Drechslera oryzae at 1000 ppm after 168 hrs at 24 hrs intervals.
Assay [10] has as its system Alternaria alternata. Put plainly: Antifungal activity against Alternaria tenuis at 100 ppm after 168 hrs at 24 hrs intervals.
In assay [11] the test system is Alternaria alternata. Put plainly: Antifungal activity against Alternaria tenuis at 1 ppm after 168 hrs at 24 hrs intervals.
Assay [12] concerns Fusarium oxysporum f. sp. vasinfectum. Put plainly: Antifungal activity against Fusarium oxysporum vasinfectum at 10 ppm after 144 hrs at 24 hrs intervals.

With `CC(C)=CCc1c(O)cc2oc3cc(O)c(O)c(CC=C(C)C)c3c(=O)c2c1O`, the inhibition (commonly the drop in the measured response relative to a control, in per cent) at 10 ppm in the assay on Drechslera [1] came out at 35%; in the assay on Alternaria alternata [4], 9%; in [12] it was 6%. Besides, the inhibition at 1 ppm amounted to 5% in the assay with Drechslera [2], 0% in assay [8] and 1% in the assay with Alternaria alternata [11]. For the same compound, the inhibition at 1000 ppm was determined as 64% in assay [3], 58% in the assay on Alternaria alternata [7] and 85% in the assay with Drechslera [9]. The inhibition at 100 ppm in assay [5] is 50%; with Drechslera [6], 81%; in the assay on Alternaria alternata [10], 33%.

As to `COc1cc2oc3cc(OC)c(OC)c(CC=C(C)C)c3c(=O)c2c(O)c1CC=C(C)C`, the values for the inhibition at 10 ppm (in the assay with Drechslera [1]; in the assay with Alternaria alternata [4]; in assay [12]) were 9%, 22% and 12%, respectively. In addition, the values for the inhibition at 1 ppm (in the assay with Drechslera [2]; in [8]; in the assay with Alternaria alternata [11]) were 7%, 5% and 14%, respectively. Moreover, the results for the inhibition at 1000 ppm (in assay [3]; with Alternaria alternata [7]; with Drechslera [9]) were 17%, 16% and 41%, respectively. Moreover, the values for the inhibition at 100 ppm (in assay [5]; in the assay with Drechslera [6]; in the assay with Alternaria alternata [10]) were 16%, 27% and 16%, respectively.

For `CCCOc1cc2oc3cc(OCCC)c(OC)c(CC=C(C)C)c3c(=O)c2c(O)c1CC=C(C)C`, the results for the inhibition at 10 ppm (in the assay with Drechslera [1]; in the assay with Alternaria alternata [4]; in assay [12]) were -25%, -3% and 5%, respectively. For the same compound, the inhibition at 1 ppm is 8% in the assay on Drechslera [2], -4% in assay [8] and -6% in the assay on Alternaria alternata [11]. The inhibition at 1000 ppm in assay [3] is -2%; in the assay with Alternaria alternata [7] it was 1%; with Drechslera [9], -10%. The inhibition at 100 ppm in assay [5] is -6%; in the assay on Drechslera [6], -36%; with Alternaria alternata [10] it was -2%.

With `CCCCOc1cc2oc3cc(OCCCC)c(OC)c(CC=C(C)C)c3c(=O)c2c(O)c1CC=C(C)C`, the figures for the inhibition at 10 ppm (in the assay with Drechslera [1]; with Alternaria alternata [4]; in assay [12]) were -38%, 4% and -4%, respectively. Moreover, the results for the inhibition at 1 ppm (with Drechslera [2]; in assay [8]; with Alternaria alternata [11]) were -38%, -7% and 1%, respectively. Further, the inhibition at 1000 ppm in assay [3] was -3%; in the assay with Alternaria alternata [7] it was -5%; in the assay on Drechslera [9], -69%. The inhibition at 100 ppm was -4% in assay [5], -66% with Drechslera [6] and -2% in the assay on Alternaria alternata [10].

Consider `S=c1c2ccccc2oc2ccccc12`, for which the results for the inhibition at 10 ppm (in the assay on Drechslera [1]; in the assay on Alternaria alternata [4]; in assay [12]) were 5%, -12% and 4%, respectively. Moreover, the inhibition at 1 ppm in the assay with Drechslera [2] was 11%; in assay [8], 2%; in the assay with Alternaria alternata [11] it was -6%. Also, the results for the inhibition at 1000 ppm (in assay [3]; with Alternaria alternata [7]; with Drechslera [9]) were 6%, -32% and 10%, respectively. The inhibition at 100 ppm in [5] was 4%; in the assay on Drechslera [6] it was -11%; in the assay on Alternaria alternata [10] it was -22%.

For `CCOc1cc2oc3cc(OCC)c(OC)c(CC=C(C)C)c3c(=O)c2c(O)c1CC=C(C)C`, the results for the inhibition at 10 ppm (in the assay with Drechslera [1]; with Alternaria alternata [4]; in assay [12]) were -34%, 4% and -2%, respectively. Moreover, the inhibition at 1 ppm is -72% in the assay on Drechslera [2], -3% in assay [8] and -4% in the assay on Alternaria alternata [11]. Also, the inhibition at 1000 ppm in assay [3] is -1%; in the assay on Alternaria alternata [7], -1%; in the assay on Drechslera [9], -57%. In addition, the inhibition at 100 ppm in assay [5] was -3%; in the assay with Drechslera [6], -31%; in the assay on Alternaria alternata [10], -11%.
